Test results reported in US11498930B2 (BLUERAY THERAPEUTICS (SHANGHAI) CO., LTD., priority 2018, dated 2022).
Like-named read-outs stand apart in the source and are kept apart here.

Assays:
[1] = tested on: phosphorylation level of intracellular protein kinase (ERK) in MOLM13 cells; assay: Phosphorylated protein kinase (p-ERK) cell experiment (AlphaLISA); type: cell-based
Method: The inhibitory activities of the compounds on the phosphorylation level of intracellular protein kinase (ERK) were determined by AlphaLISA method.
Firstly, the cells were treated with the compounds. The compounds to be tested were subjected to 3-fold dilution with 100% DMSO, and a total of 9 different concentration gradients were set. MOLM13 cells were then seeded into 96-well plates at a density of 30,000 cells per well in a volume of 100 µL per well. […] of DMSO or the test compounds with different concentrations was then transferred into each well, setting two duplicates for each concentration, and the final concentration of DMSO was controlled at 0.5%.
Secondly, the cells were lysed. After 2 hours of cell treatment, the medium was removed, and the cells were washed 3 times with phosphate buffered saline. 50 µL of freshly prepared lysis buffer was added to each well, and the plates were shaken and kept at room temperature for 10 minutes.
Thirdly, the phosphorylated extracellular signal-regulated kinase (p-ERK) was detected by AlphaLISA@ SureFire® Ultra™ p-ERK 1/2 (Thr202/Tyr204) kit (Perkin Elmer, ALSU-PERK-A10K). 10 µL of the above lysate was transferred to a 384-well plate (Perkin Elmer, 6005350), and the phosphorylation level of the extracellular signal-regulated kinase of the sample was detected according to the product instructions. The signal was read using AlphaScreen detector on Spectra max i3 (Molecular Devices). The percentage of inhibition (%) was calculated by the following formula: Inhibition percentage(%)=(1−p-ERK signal of compound-treated cells/p-ERK signal of DMSO-treated cells)*100

SHP2^E76A protein = SHP2^E76A protein (Homo sapiens (Human), UniProt Q06124, E76A); assay: SHP2 enzyme activity inhibition experiment; type: biochemical
Method: Compound powders were dissolved in DMSO to prepare mother liquor.
During the experiment, the stock solutions of the compounds were subjected to 3-fold gradient dilution with DMSO, and 10 different test concentrations of each compound were set. […] The protein used was the activated protein SHP^2E76A with amino acid mutation at position 76 of the protein, and the substrate used was DiFMUP (Invitrogen, E12020). […] 50 µL of enzyme solution was added to the detection wells, followed by 50 µL of substrate. […] GraphPad Prism 5 was used for nonlinear regression analysis, and the curve of enzyme activity versus compound concentration was fitted by the equation Y=Bottom+(Top-Bottom)/(1+10^((Log IC50−X)*HillSlope)) to calculate the IC50 value of each compound.

MOLM-13 cells = assay: MOLM-13 cell proliferation experiment; type: cell-based; settings: Homo sapiens
Method: After 3 days, 5 µL of CellTiter-Glo reagent (Promega, ZG7572) was added to each well, and the plates were kept at room temperature in the dark for 10 minutes. The […] was detected by Spectra max i3 (Molecular Devices). The relative growth rate of the treated cells was compared with that of DMSO control.

[2] = p-ERK, MOLM13 cells, 2 hours of cell treatment, Tables 2.1 and 2.2, read-out: IC50
[3] = SHP2 enzyme activity, Tables 1.1 and 1.2, read-out: IC50
[4] = Table 4, read-out: SHP2 enzyme activity IC50
[5] = Homo sapiens, MOLM-13, MOLM13 cells, Table 4, read-out: p-ERK IC50
[6] = MOLM-13, 72 h, MOLM-13 cell proliferation, 3 days, Tables 3.1 and 3.2, read-out: IC50
[7] = MOLM-13, read-out: MOLM-13 cell proliferation IC50
[8] = Homo sapiens, MOLM-13, p-ERK, MOLM13 cells, 2 hours of cell treatment, Tables 2.1 and 2.2, read-out: IC50

Sequence of SHP2^E76A protein (Q06124 whole entry E76A): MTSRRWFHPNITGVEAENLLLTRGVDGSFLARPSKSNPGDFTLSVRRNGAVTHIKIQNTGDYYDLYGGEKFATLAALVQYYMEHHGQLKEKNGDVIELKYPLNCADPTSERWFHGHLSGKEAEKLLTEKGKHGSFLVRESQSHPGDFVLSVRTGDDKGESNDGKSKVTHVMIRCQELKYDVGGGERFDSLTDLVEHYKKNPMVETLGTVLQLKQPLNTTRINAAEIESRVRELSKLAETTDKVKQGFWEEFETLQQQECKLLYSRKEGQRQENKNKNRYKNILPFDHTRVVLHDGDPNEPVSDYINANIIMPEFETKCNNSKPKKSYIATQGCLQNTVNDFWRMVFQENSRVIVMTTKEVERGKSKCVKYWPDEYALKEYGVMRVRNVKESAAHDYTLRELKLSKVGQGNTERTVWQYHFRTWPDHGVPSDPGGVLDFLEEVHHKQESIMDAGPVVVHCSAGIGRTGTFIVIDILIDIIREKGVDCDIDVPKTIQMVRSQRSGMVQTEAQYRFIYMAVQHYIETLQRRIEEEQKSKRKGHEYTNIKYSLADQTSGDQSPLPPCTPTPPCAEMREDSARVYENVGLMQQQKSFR

Compound	IC50 (SHP2^E76A protein; [3]) [nM]	IC50 (MOLM-13 cells; [6]) [nM]	IC50 [1, 8] [nM]	also measured
CC1C[C@@H](N)C2(CCN(c3ncc(Sc4cccc(Cl)c4Cl)c4nncn34)CC2)C1 (some centres unmarked)				IC50 [1, 2]: < 100 nM
C[C@@H]1OCC2(CCN(c3ncc(Sc4ccnc(N)c4Cl)c4nncn34)CC2)[C@@H]1N	< 100	100 to 1000		IC50 (SHP2^E76A protein; [4]): 13 nM; IC50 [1, 5]: 335 nM; IC50 (MOLM-13 cells; [7]): 102 nM
C[C@@H]1OCC2(CCN(c3ncc(Sc4cccc(Cl)c4Cl)c4nncn34)CC2)[C@@H]1N [listing 1 of 2 here]				IC50 (SHP2^E76A protein; [4]): 3 nM; IC50 [1, 5]: 195 nM; IC50 (MOLM-13 cells; [7]): 158 nM
C[C@@H]1OCC2(CCN(c3ncc(Sc4cccc(Cl)c4Cl)c4nncn34)CC2)[C@@H]1N [listing 2 of 2 here]	< 100	100 to 1000	100 to 1000	
N[C@@H]1CC(O)CC12CCN(c1ncc(Sc3cccc(Cl)c3Cl)c3nccn13)CC2 (some centres unmarked)	< 100	< 100	< 100	IC50 (SHP2^E76A protein; [4]): 9 nM; IC50 [1, 5]: 28 nM; IC50 (MOLM-13 cells; [7]): 42 nM
N[C@@H]1CCCC12CCN(c1ncc(Sc3cccnc3Cl)c3nccn13)CC2		100 to 1000	100 to 1000	
N[C@@H]1CCCC12CCN(c1ncc(Sc3cccc(NC(=O)c4c(O)nc5n(c4=O)CCCC5)c3Cl)c3nccn13)CC2				IC50 [1, 2]: < 100 nM
CC1(N)CCN(c2ncc(Sc3cccc(Cl)c3Cl)c3nncn23)CC1 [1-(8-((2,3-dichlorophenyl)thio)-[1,2,4]triazolo[4,3-c]pyrimidin-5-yl)-4-methylpiperidin-4-amine]	100 to 1000	1000 to 10000	1000 to 10000	
CC1(N)CCN(c2ncc(Sc3ccnc(N)c3Cl)c3nncn23)CC1 [4-((5-(4-amino-4-methylpiperidin-1-yl)-[1,2,4]triazolo[4,3-c]pyrimidin-8-yl)thio)-3-chloropyridin-2-amine]	100 to 1000	1000 to 10000	1000 to 10000	
CC1(CN)CCN(c2ncc(Sc3cccc(Cl)c3Cl)c3nncn23)CC1 [(1-(8-((2,3-dichlorophenyl)thio)-[1,2,4]triazolo[4,3-c]pyrimidin-5-yl)-4-methylpiperidin-4-yl)methanamine]	< 100	1000 to 10000	100 to 1000	IC50 (SHP2^E76A protein; [4]): 40 nM; IC50 [1, 5]: 170 nM; IC50 (MOLM-13 cells; [7]): 1360 nM
NCC1CCN(c2ncc(Sc3cccc(Cl)c3Cl)c3nncn23)C1 (centres unmarked) [(1-(8-((2,3-dichlorophenyl)thio)-[1,2,4]triazolo[4,3-c]pyrimidin-5-yl)pyrrolidin-3-yl)methanamine]	100 to 1000	1000 to 10000	1000 to 10000	
CC1C[C@@H](N)C2(CCN(c3ncc(Sc4cccc(Cl)c4Cl)c4nncn34)CC2)C1 (stereo partly drawn) [(1R)-8-(8-((2,3-dichlorophenyl)thio)-[1,2,4]triazolo[4,3-c]pyrimidin-5-yl)-3-methyl-8-azaspiro[4.5]decan-1-amine]	< 100	< 100		IC50 (SHP2^E76A protein; [4]): 4 nM; IC50 [1, 5]: 64 nM; IC50 (MOLM-13 cells; [7]): 59 nM
CC1CCC2(CCN(c3ncc(Sc4cccc(Cl)c4Cl)c4nccn34)CC2)[C@@H]1N (stereo partly drawn) [(1R)-8-(8-((2,3-dichlorophenyl)thio)imidazo[1,2-c]pyrimidin-5-yl)-2-methyl-8-azaspiro[4.5]decan-1-amine]	< 100	100 to 1000	100 to 1000	
CC1C[C@@H](N)C2(CCN(c3ncc(Sc4cccc(Cl)c4Cl)c4nccn34)CC2)C1 (stereo partly drawn) [(1R)-8-(8-((2,3-dichlorophenyl)thio)imidazo[1,2-c]pyrimidin-5-yl)-3-methyl-8-azaspiro[4.5]decan-1-amine]	< 100	100 to 1000	< 100	IC50 (SHP2^E76A protein; [4]): 11 nM; IC50 [1, 5]: 53 nM; IC50 (MOLM-13 cells; [7]): 140 nM
N[C@@H]1CCOC12CCN(c1ncc(Sc3cccc(Cl)c3Cl)c3nccn13)CC2 [(R)-8-(8-((2,3-dichlorophenyl)thio)imidazo[1,2-c]pyrimidin-5-yl)-1-oxa-8-azaspiro[4.5]decan-4-amine]	100 to 1000		100 to 1000	
N[C@@H]1CCCC12CCN(c1ncc(Sc3ccc(Cl)cc3Cl)c3nncn13)CC2 [(R)-8-(8-((2,4-dichlorophenyl)thio)-[1,2,4]triazolo[4,3-c]pyrimidin-5-yl)-8-azaspiro[4.5]decan-1-amine]	100 to 1000	1000 to 10000		
CC(C)c1ccccc1Sc1cnc(N2CCC3(CCC[C@H]3N)CC2)n2cnnc12 [(R)-8-(8-((2-isopropylphenyl)thio)-[1,2,4]triazolo[4,3-c]pyrimidin-5-yl)-8-azaspiro[4.5]decan-1-amine]	100 to 1000	1000 to 10000		
COc1ccccc1Sc1cnc(N2CCC3(CCC[C@H]3N)CC2)n2cnnc12 [(R)-8-(8-((2-methoxyphenyl)thio)-[1,2,4]triazolo[4,3-c]pyrimidin-5-yl)-8-azaspiro[4.5]decan-1-amine]	100 to 1000	100 to 1000		
Nc1cccc(Sc2cnc(N3CCC4(CCC[C@H]4N)CC3)n3ccnc23)c1Cl [(R)-8-(8-((3-amino-2-chlorophenyl)thio)imidazo[1,2-c]pyrimidin-5-yl)-8-azaspiro[4.5]decan-1-amine]	100 to 1000	100 to 1000		
N[C@@H]1CCCC12CCN(c1ncc(Sc3ccncc3Cl)c3ncnn13)CC2 [(R)-8-(8-((3-chloropyridin-4-yl)thio)-[1,2,4]triazolo[1,5-c]pyrimidin-5-yl)-8-azaspiro[4.5]decan-1-amine]	1000 to 10000	1000 to 10000		
N[C@@H]1CCCC12CCN(c1ncc(Sc3cccc4ccccc34)c3nncn13)CC2 [(R)-8-(8-(naphthalen-1-ylthio)-[1,2,4]triazolo[4,3-c]pyrimidin-5-yl)-8-azaspiro[4.5]decan-1-amine]	< 100	100 to 1000		
N[C@@H]1CCCC12CCN(c1ncc(Sc3ccccc3)c3nccn13)CC2 [(R)-8-(8-(phenylthio)imidazo[1,2-c]pyrimidin-5-yl)-8-azaspiro[4.5]decan-1-amine]	100 to 1000	100 to 1000		
N[C@@H]1CCCC12CCN(c1ncc(Sc3cccc(NC(=O)c4c(O)nc5n(c4=O)CCCC5)c3Cl)c3nccn13)CC2 [(R)-N-(3-((5-(1-amino-8-azaspiro[4.5]decan-8-yl)imidazo[1,2-c]pyrimidin-8-yl)thio)-2-chlorophenyl)-2-hydroxy-4-oxo-6,7,8,9-tetrahydro-4H-pyrido[1,2-a]pyrimidin-3-carboxamide]	100 to 1000	100 to 1000		
N[C@@H]1COCC12CCN(c1ncc(Sc3cccc(Cl)c3Cl)c3nccn13)CC2 [(S)-8-(8-((2,3-dichlorophenyl)thio)imidazo[1,2-c]pyrimidin-5-yl)-2-oxa-8-azaspiro[4.5]decan-4-amine]	< 100	100 to 1000		
N[C@@H]1COCC12CCN(c1ncc(Sc3ccnc(Cl)c3Cl)c3nncn13)CC2 [(S)-8-(8-((2,3-dichloropyridin-4-yl)thio)-[1,2,4]triazolo[4,3-c]pyrimidin-5-yl)-2-oxa-8-azaspiro[4.5]decan-4-amine]	100 to 1000	100 to 1000		
Nc1cc(Sc2cnc(N3CCC4(CC3)COC[C@H]4N)n3cnnc23)c(Cl)c(Cl)n1 [(S)-8-(8-((6-amino-2,3-dichloropyridin-4-yl)thio)-[1,2,4]triazolo[4,3-c]pyrimidin-5-yl)-2-oxa-8-azaspiro[4.5]decan-4-amine]	< 100	1000 to 10000		
COC(=O)c1ccccc1Sc1cnc(N2CCC3(CCC[C@H]3N)CC2)n2ccnc12 [Methyl (R)-2-((5-(1-amino-8-azaspiro[4.5]decan-8-yl)imidazo[1,2-c]pyrimidin-8-yl)thio)benzoate]	100 to 1000	100 to 1000		
CC1(N)CCN(c2cnc(-c3cccc(Cl)c3Cl)c(N)n2)CC1 [SHP099, 6-(4-amino-4-methylpiperidin-1-yl)-3-(2,3-dichlorophenyl)pyrazin-2-amine, reference compound]				IC50 ([1]; Homo sapiens, MOLM-13, read-out: p-ERK IC50): 2070 nM
